# Read-outs that look alike come from different tables or passages of the source.
# Key:
# [1] = tested on: Third-Instar Tobacco Budworm Larvae; assay: whole plant or invertebrate; format: in vivo; conditions: Heliothis virescens, in Gossypium hirsutum, foliar, 72 h, larval counts after 72 hours; for mortality at 30 ppm: read-out: Average % Mortality, 30 ppm; for mortality at 100 ppm: read-out: Average % Mortality, 100 ppm; for mortality at 300 ppm: read-out: Average % Mortality, 300 ppm; for mortality at 900 ppm: read-out: Average % Mortality, 900 ppm
# Excerpt: Residual insecticidal activity obtained with foliar treatment of cotton plants Young cotton plants with at least two expanded true leaves growing in 10 cm plastic pots were dipped, usually one leaf at a time in a 65% acetone-35% water solution of test compound with agitation for three seconds. The concentration of the compound in the solutions was 30 ppm, 100 ppm, 300 ppm or 900 ppm of active ingredient. After the leaves had dried, two leaves from each of two plants were excised and placed in petri dishes (90 mm × 100 mm) on moist filter paper (9 cm Whatman No. 1). Five third-instar tobacco budworm larvae were placed on each leaf and the petri dish capped. The infested dishes were than placed in a holding room with continuous light, ambient temperature of 80° F and 50% r.h. Larval counts were made after 72 hours. The remaining plants were placed under high intensity lights in the greenhouse adjusted to provide 14 hours of light per day. Leaf samples were assayed with third instar tobacco budworm larvae after 3, 7, 10 and 14 days exposure in the greenhouse. The data obtained are summarized in Table I. |Residual Insecticidal Activity of a Test Compound on Cotton Plants Using |Third-Instar Tobacco Budworm Larvae for Bioassay | * = Average % Mortality 20 TBW/Point
# [2] = tested on: adult Boophilus microplus ticks; assay: whole plant or invertebrate; format: in vivo; conditions: Rhipicephalus microplus, in Bos taurus, topical, 48 h, read-out: Percent Adult Tick Mortality
# Procedure: The effectiveness of an acaricide prepared from the novel 2,2-difluoro-1,3-dioxole-5-(α-alkyl)acetic acids of the present invention for the control of adult Boophilus microplus ticks is determined in the following test wherein the test compound is dissolved in 10% acetone-90% water mixture in sufficient amounts to give solutions containing […] ppm of test compound.
# Adult engorged female ticks are dipped in the test solutions for 3 seconds and placed in individual containers and held for 48 hours in a room maintained at 80° F and 50% r.h. At the end of the holding period the ticks are examined and egg deposits counted. […]
# Percent Adult Tick Mortality
smiles,measurement,setting,value
CC(C)C(C(=O)OC(C#N)c1cccc(Oc2ccccc2)c1)c1ccc2c(c1)OC(F)(F)O2 (stereo not shown) [drawing 6],mortality at 30 ppm,[1]; 0 days residual,45%
same,mortality at 30 ppm,[1]; 3 days residual,0%
same,mortality at 30 ppm,[1]; 7 days residual,10%
same,mortality at 30 ppm,[1]; 10 days residual,10%
same,mortality at 30 ppm,[1]; 14 days residual,10%
same,mortality at 100 ppm,[1]; 0 days residual,90%
same,mortality at 100 ppm,[1]; 3 days residual,55%
same,mortality at 100 ppm,[1]; 7 days residual,55%
same,mortality at 100 ppm,[1]; 10 days residual,65%
same,mortality at 100 ppm,[1]; 14 days residual,10%
same,mortality at 300 ppm,[1]; 0 days residual,95%
same,mortality at 300 ppm,[1]; 3 days residual,90%
same,mortality at 300 ppm,[1]; 7 days residual,100%
same,mortality at 300 ppm,[1]; 10 days residual,90%
same,mortality at 300 ppm,[1]; 14 days residual,95%
same,mortality at 900 ppm,[1]; 0 days residual,100%
same,mortality at 900 ppm,[1]; 3 days residual,100%
same,mortality at 900 ppm,[1]; 7 days residual,100%
same,mortality at 900 ppm,[1]; 10 days residual,100%
same,mortality at 900 ppm,[1]; 14 days residual,100%
CC(C)C(C(=O)OC(C#N)c1cccc(Oc2ccccc2)c1)c1ccc2c(c1)OC(F)(F)O2 (stereo not shown) [drawing 7],mortality at 7.3 ppm,[2],80.2%
same,mortality at 15.6 ppm,[2],85.8%
same,mortality at 31.2 ppm,[2],88.4%
same,mortality at 62.5 ppm,[2],99.7%
same,mortality at 125 ppm,[2],98.3%

# From patent publication US4110345A, “2,2-Difluoro-1,3-benzodioxole-5-(α-alkyl)-acetic acids, and their use for the preparation of insecticides and acaricides” (American Cyanamid Company, priority 1977, dated 1978)
